Assay results: US20210268122A1, “INHIBITION OF S[…] PROTEIN INHIBITORS OF CYSTEINE PROTEASES” (DYVE BIOSCIENCES, INC., priority 2017, published 2021)
Where two headings read alike, the source gives them in different places.

Tests used:
MDA-MB-231/eGFP cells [1] = system: MDA-MB-231/eGFP cells
MDA-MB-231/eGFP cells [2] = settings: Example 14, Ncr nude mice
LL/2 cells = settings: SCID-beige mice, 1×10^6 LL/2 cells intravenously; treatment for 120 days
Method: In vivo tests were performed as follows: SCID-beige mice aged 6 weeks were injected intravenously with 1×10^6 LL/2 cells.
The treatment groups were:
Group A (Negative Control): Untreated
Volumes of primary tumors were measured twice weekly.

RIP1-Tag2 mice = settings: 100 μL topically once daily
Source text: Trial design was built to assess these primary outcomes: the effects on angiogenesis and tumor growth. Treatment groups randomized as follows:
Each applied topically once daily. Formulations are detailed below:

cysteine cathepsin = settings: after intra-peritoneal injections; cited from earlier work
[3] = system: MMTV-PyMT-transgenic mouse model; settings: cited from earlier work
[4] = Example 13, Ncr nude mice, gross necropsy at end of 120 day survival experiment
[5] = gross necropsy at end of 120 day survival experiment

Row | Molecule | % of mice surviving to 120 days (MDA-MB-231/eGFP cells [1]; Example 13, Ncr nude mice, MDA-MB-231/eGFP orthotopic) [%] | metastatic rate, intestinal (MDA-MB-231/eGFP cells [1]; [4]) [%] | metastatic rate, lung (MDA-MB-231/eGFP cells [1]; [4]) [%] | metastatic rate, lymph node (MDA-MB-231/eGFP cells [1]; [4]) [%] | metastatic rate, mesentery (MDA-MB-231/eGFP cells [1]; [4]) [%] | primary tumor growth rates (MDA-MB-231/eGFP cells [1]; Example 13, compared among all active groups B, C, D, E) | % of mice surviving to 120 days (MDA-MB-231/eGFP cells [2]; MDA-MB-231/eGFP orthotopic) [%] | metastatic rate, intestinal (MDA-MB-231/eGFP cells [2]; [5]) [%] | metastatic rate, lung (MDA-MB-231/eGFP cells [2]; [5]) [%] | metastatic rate, lymph node (MDA-MB-231/eGFP cells [2]; [5]) [%] | metastatic rate, mesentery (MDA-MB-231/eGFP cells [2]; [5]) [%] | mice surviving to 120 days (LL/2 cells) [%] | reduction in the number of angiogenic islets relative to the Control Group (RIP1-Tag2 mice; at 10.5 weeks of age) [%] | reduction of cumulative tumor volume relative to the Control Group (RIP1-Tag2 mice; at 14.5 weeks of age) [%] | cysteine cathepsin activities in mammary and in lungs (cysteine cathepsin) | cysteine cathepsin activities in pancreas, kidney, and liver (cysteine cathepsin) | activity against early and advanced mammary cancer stages [3]
1 | O=C([O-])O.[Na+] [Group B (Oral Buffer, Positive Control), sodium bicarbonate] | 60 | 0 | 8 | 27 | 0 | the same | 60 | 0 | 8 | 27 | 0 | 20 |  |  |  |  | 
2 | JPM-OEt |  |  |  |  |  |  |  |  |  |  |  |  | 49 | 67 | not significantly affected | effective inhibition | active
